Assay results reported in ChEMBL document CHEMBL1127717, “Synthesis of new oligosaccharidyl-thio--cyclodextrins (CDS): a novel family of potent drug-targetting vectors” (1994).
Converted amounts (≈) assume the structure as drawn.

Tested on: Saccharomyces cerevisiae
Assay: (§1) In vitro flocculation inhibitory ability was determined towards Yeast cell wall lectin (KbWCL)
Format: functional
Details: not given
In the case of OC[C@H]1O[C@@H]2O[C@H]3[C@H](O)[C@@H](O)[C@@H](O[C@H]4[C@H](O)[C@@H](O)[C@@H](O[C@H]5[C@H](O)[C@@H](O)[C@@H](O[C@H]6[C@H](O)[C@@H](O)[C@@H](O[C@H]7[C@H](O)[C@@H](O)[C@@H](O[C@H]1[C@H](O)[C@H]2O)O[C@@H]7CO)O[C@@H]6CO)O[C@@H]5CO)O[C@@H]4CO)O[C@@H]3CO, the MIC is reported as “No inhibition”.
With OC[C@H]1OC(O)[C@H](O)[C@@H](O)[C@@H]1O (stereo not given in full) the MIC was “No inhibition”.
In the case of OC[C@H]1O[C@@H]2O[C@H]3[C@H](O)[C@@H](O)[C@@H](O[C@H]4[C@H](O)[C@@H](O)[C@@H](O[C@H]5[C@H](O)[C@@H](O)[C@@H](O[C@H]6[C@H](O)[C@@H](O)[C@@H](O[C@H]7[C@H](O)[C@@H](O)[C@@H](O[C@H]8[C@H](O)[C@@H](O)[C@@H](O[C@H]1[C@H](O)[C@H]2O)O[C@@H]8CO)O[C@@H]7CO)O[C@@H]6CO)O[C@@H]5CO)O[C@@H]4CO)O[C@@H]3CO, the MIC is reported as “No inhibition”.
For OC1OC[C@@H](O)[C@@H](O)[C@@H]1O (stereo not given in full), the MIC was “No inhibition”.

Tested on: not listed separately
Assay: as §1
Format: functional, Saccharomyces cerevisiae
Details: not given
Work on O=[N+]([O-])c1ccc(O[C@H]2O[C@H](CO)[C@@H](O)[C@H](O)[C@H]2O)cc1 (stereo in doubt; form 2) yielded an MIC of 830 µM (≈ 250 µg/mL).
With O=[N+]([O-])c1ccc(O[C@H]2O[C@H](CO)[C@@H](O)[C@H](O)[C@H]2O)cc1 (stereo in doubt; form 1) the MIC was 400 µM (≈ 121 µg/mL).
Work on [Na+].[O-]CC1OC(SCC2OC3OC4C(CSC5OC(CO)C(O)C(O)C5O)OC(OC5C(CSC6OC(CO)C(O)C(O)C6O)OC(OC6C(CSC7OC(CO)C(O)C(O)C7O)OC(OC7C(CSC8OC(CO)C(O)C(O)C8O)OC(OC8C(CSC9OC(CO)C(O)C(O)C9O)OC(OC9C(CSC%10OC(CO)C(O)C(O)C%10O)OC(OC2C(O)C3O)C(O)C9O)C(O)C8O)C(O)C7O)C(O)C6O)C(O)C5O)C(O)C4O)C(O)C(O)C1O (stereo in doubt; 6) yielded an MIC of 700 µM.
In the case of [Na+].[O-]CC1OC(SCC2OC3OC4C(CSC5OC(CO)C(O)C(O)C5O)OC(OC5C(CSC6OC(CO)C(O)C(O)C6O)OC(OC6C(CSC7OC(CO)C(O)C(O)C7O)OC(OC7C(CSC8OC(CO)C(O)C(O)C8O)OC(OC8C(CSC9OC(CO)C(O)C(O)C9O)OC(OC9C(CSC%10OC(CO)C(O)C(O)C%10O)OC(OC2C(O)C3O)C(O)C9O)C(O)C8O)C(O)C7O)C(O)C6O)C(O)C5O)C(O)C4O)C(O)C(O)C1O (stereo in doubt; 5), the MIC is reported as 1660 µM.

Same assay, conditions: Saccharomyces cerevisiae; read-out: MIC
In the case of OC[C@@H]1O[C@@H](SC[C@@H]2O[C@@H]3O[C@H]4[C@H](O)[C@H](O)[C@@H](O[C@H]5[C@H](O)[C@H](O)[C@@H](O[C@H]6[C@H](O)[C@H](O)[C@@H](O[C@H]7[C@H](O)[C@H](O)[C@@H](O[C@H]8[C@H](O)[C@H](O)[C@@H](O[C@H]9[C@H](O)[C@H](O)[C@@H](O[C@H]2[C@H](O)[C@@H]3O)O[C@H]9CO)O[C@H]8CO)O[C@H]7CO)O[C@H]6CO)O[C@H]5CO)O[C@H]4CO)[C@@H](O)[C@@H](O)[C@@H]1O, the MIC is reported as 3750 µM (≈ 4920 µg/mL).
In the case of O=C(NC[C@@H]1O[C@@H]2O[C@H]3[C@H](O)[C@H](O)[C@@H](O[C@H]4[C@H](O)[C@H](O)[C@@H](O[C@H]5[C@H](O)[C@H](O)[C@@H](O[C@H]6[C@H](O)[C@H](O)[C@@H](O[C@H]7[C@H](O)[C@H](O)[C@@H](O[C@H]8[C@H](O)[C@H](O)[C@@H](O[C@H]1[C@H](O)[C@@H]2O)O[C@H]8CO)O[C@H]7CO)O[C@H]6CO)O[C@H]5CO)O[C@H]4CO)O[C@H]3CO)C(CS[C@@H]1O[C@@H](CO)[C@H](O)[C@H](O)[C@@H]1O)CS[C@@H]1O[C@@H](CO)[C@H](O)[C@H](O)[C@@H]1O, the MIC is reported as 2000 µM (≈ 3190 µg/mL).
In the case of OC[C@H]1O[C@H](OCC2O[C@@H](O)[C@H](O)[C@@H](O)[C@@H]2O)[C@H](O)[C@@H](O)[C@H]1O (stereo not given in full) [MELIBIOSE], the MIC is reported as 600 µM (≈ 205 µg/mL).
In the case of O=C(CCCCCCCC(=O)N[C@@H]1O[C@@H](CO)[C@H](O)[C@H](O)[C@@H]1O)NC[C@@H]1O[C@@H]2O[C@H]3[C@H](O)[C@H](O)[C@@H](O[C@H]4[C@H](O)[C@H](O)[C@@H](O[C@H]5[C@H](O)[C@H](O)[C@@H](O[C@H]6[C@H](O)[C@H](O)[C@@H](O[C@H]7[C@H](O)[C@H](O)[C@@H](O[C@H]8[C@H](O)[C@H](O)[C@@H](O[C@H]1[C@H](O)[C@@H]2O)O[C@H]8CO)O[C@H]7CO)O[C@H]6CO)O[C@H]5CO)O[C@H]4CO)O[C@H]3CO, the MIC is reported as 1700 µM (≈ 2490 µg/mL).
Work on C[C@H]1OC(O)[C@H](O)[C@@H](O)[C@H]1O (stereo not given in full) yielded an MIC of 3500 µM (≈ 575 µg/mL).
For OCC1OC(SCCSCC2OC3OC4C(CSCCSC5OC(CO)C(O)C(O)C5O)OC(OC5C(CSCCSC6OC(CO)C(O)C(O)C6O)OC(OC6C(CSCCSC7OC(CO)C(O)C(O)C7O)OC(OC7C(CSCCSC8OC(CO)C(O)C(O)C8O)OC(OC8C(CSCCSC9OC(CO)C(O)C(O)C9O)OC(OC9C(CSCCSC%10OC(CO)C(O)C(O)C%10O)OC(OC2C(O)C3O)C(O)C9O)C(O)C8O)C(O)C7O)C(O)C6O)C(O)C5O)C(O)C4O)C(O)C(O)C1O (stereo not given), the MIC was 410 µM (≈ 1150 µg/mL).
In the case of OC[C@H]1O[C@H](OC[C@H]2O[C@H](O[C@]3(CO)O[C@H](CO)[C@@H](O)[C@@H]3O)[C@H](O)[C@@H](O)[C@@H]2O)[C@H](O)[C@@H](O)[C@H]1O [RAFFINOSE], the MIC is reported as 1200 µM (≈ 605 µg/mL).
